# Measured values taken from PMC9137037 (Frontiers in Oncology, 2022).
# Read-outs that look alike come from different tables or passages of the source. Where no end group is shown, it is not given here.
# What was measured:
# cynomolgus monkeys = test: GLP repeat-dose toxicology, first monkey study No.00213515; type: in vivo, Macaca fascicularis
# Method: (§1) The non-human primate studies were carried out by the Charles River Laboratories (Ashland, OH USA). All the cynomolgus monkeys (Macaca fascicularis of Chinese origin) were obtained from Charles River Laboratories (Houston, TX, USA). In brief, the animals were approximately 2–4 years old and at the body weight between 2.2 and 3.1 kg at the initial dosing. The animals were kept at the temperature between 19°C and 24°C, humidity 30%–70%, and with 12 h light and 12 h dark light cycle. The Good manufacturing practice (GMP)-manufactured vaccine was used in the non-human primate study. […] Similar to mouse and dog dosing preparation, after the emulsion was prepared, a drop test was performed on each time of dosing to confirm that the emulsion had been prepared properly. […] The dose volume was split approximately equally across two different sites; 0.5 ml of the dose was intramuscularly (IM) injected into the right posterior lateral thigh, the left dosing was injected into the left site. All the animals’ body weights were monitored weekly after receiving. After each immunization, the animal body temperature was tested 6 and 24 h post each immunization. […] The animal bleed were collected before each time of immunization to monitor the antibody titers. There were two sets of non-human primate studies conducted. The first set of monkey study No.00213515 had 24 monkeys, 12 males, and 12 females divided into 4 groups: vehicle control, low dose 0.5 mg, medium dose 2 mg, and high dose 5 mg. There were 16 monkeys (8 males and 8 females) in the second set of monkey study No. 00213519. The monkeys in the four groups were vaccinated as follows: vehicle control, low dose 25 μg, medium dose 100 μg, and high dose 250 μg.
# In the non-human primate study (#00213515), 24 non-human primates, cynomolgus monkeys, were used. The monkeys were immunized four times (1Y, 2Y, 3Y, and 4Y at days 1, 15, 29, and 43, respectively). Sera were collected at day 1 (pre), day 43, and day 59 ( Figure 4A ). There were four groups and 6 monkeys in each group. Group 1 was the control group, which was treated with only ISA 720 and ddwater. Groups 2, 3, and 4 were peptide PD-1Vaxx treatment groups and were treated with low-dose 0.5 mg/dose, medium-dose […], or high-dose […] peptide vaccine, respectively ( Figure 4B ), emulsified in ISA 720.
# These observations were first noted beginning after the second or third dose and were more frequent in female monkeys compared to male monkeys. • b) After the recovery period, all APi2568-related clinical observations had either recovered or were in the process of recovering, with the exception of swollen hind limbs.
# [1] = Toxicokinetics of APi2568 in monkey plasma (UHPLC-MS/MS); type: in vivo, cynomolgus monkey; conditions: for Cmax: UHPLC-MS/MS; for accumulation ratio (RA): TK profiles on days 1 and 43
# Method: as §1
# For the determination of TK parameters, blood samples were collected at various times after dosing analyzed using a validated UHPLC-MS/MS (ultra-high-performance liquid chromatography with tandem mass spectrometry) method, for the quantification of APi2568 in monkey plasma.
# BALB/c mice = test: Observation for autoimmune symptoms in immunized mice; type: in vivo, mouse
# Source text: The common autoimmune symptoms are identified as follows: skin rashes, low-grade fever, achy muscles, fatigue, hair loss, trouble concentrating, and so on. […] For the dogs, the high volume of ISA 720 caused a lesion near the injection site that might result in mild swelling, but the symptoms were resolved weeks after. The immunized monkeys had some swelling at or near the site of IM injection, especially after the second or third dose and more frequent in females than males. In all the clinical observations, these animals either had recovered or were in the process of recovering. Despite these adverse clinical findings, all of them were active and in good condition throughout the project. Overall, there were no observable signs or uncontrolled autoimmune symptoms.
# [2] = female, 2 mg/dose IM as PD1-Vaxx, day 43, mean
# [3] = female, 5 mg/dose IM as PD1-Vaxx, day 1
# [4] = female, 5 mg/dose IM as PD1-Vaxx, day 43, mean
# [5] = male, 0.5 mg/dose IM as PD1-Vaxx, day 43, mean
# [6] = male, 2 mg/dose IM as PD1-Vaxx, day 43, mean
# [7] = male, 5 mg/dose IM as PD1-Vaxx, day 1
# [8] = male, 5 mg/dose IM as PD1-Vaxx, day 43, mean
sequence,measurement,setting,value
KLLSLIKGVIVHRLEGVEGPSLGAISLAPKAQIKESLRAEL [MVF-PD-1(92-110)],no-observed-adverse-effect level (NOAEL),"cynomolgus monkeys; 0.5, 2, 5 mg/dose IM as PD1-Vaxx, male and female cynomolgus monkeys",could not be determined
same,clinical findings at or near the IM site of dose administration,"cynomolgus monkeys; 0.5, 2, and 5 mg/dose groups, first noted after second or third dose, more frequent in females","adverse swelling, ulceration, and/or abscess formation"
same,induction of autoimmune responses,cynomolgus monkeys; cynomolgus monkeys,has not been observed
same,safety (summary),cynomolgus monkeys; monkey 1st set,safe
same,plasma concentrations relative to the LLOQ,"[1]; day 43, 0.5 mg/dose group (both sexes) and 2 mg/dose female monkeys",≤ 6 fold
same,T1/2 mean value,"[1]; day 43, 2 and 5 mg/dose male monkeys and a single 5 mg/dose female monkey",approximately 13 h
same,Cmax/D,"[1]; female, 0.5 mg/dose IM as PD1-Vaxx, day 43, mean",17.6 (ng/ml)/(mg/dose)
same,AUC(0-t)/D,[1]; [2],47.3 (ngh/ml)/(mg/dose)
same,Cmax/D,[1]; [2],6.92 (ng/ml)/(mg/dose)
same,Tlast,[1]; [2],8 h
same,AUC(0-t)/D,[1]; [3],3.79 (ngh/ml)/(mg/dose)
same,Cmax/D,[1]; [3],0.954 (ng/ml)/(mg/dose)
same,Tlast,[1]; [3],4 h
same,AUC(0-t),"[1]; female, 5 mg/dose IM as PD1-Vaxx, day 1, AUC calculable in 1 monkey/sex",18.9 ng·h/mL
same,T1/2,"[1]; female, 5 mg/dose IM as PD1-Vaxx, day 43, calculable for a single female monkey",19.6 h
same,AUC(0-t)/D,[1]; [4],266 (ngh/ml)/(mg/dose)
same,Cmax/D,[1]; [4],31.9 (ng/ml)/(mg/dose)
same,Tlast,[1]; [4],34 h
same,Tmax,[1]; [4],1 h
same,Cmax,"[1]; female, cynomolgus monkey, plasma, im, 0.5 mg/dose, female, 0.5 mg/dose IM as PD1-Vaxx, day 43, plasma, mean (generally n = 3)",8.81 ng/mL
same,Tmax,"[1]; female, cynomolgus monkey, plasma, im, 0.5 mg/dose, read-out: Tmax",2 h
same,AUC(0-t),"[1]; female, cynomolgus monkey, plasma, im, 2 mg/dose, female, 2 mg/dose IM as PD1-Vaxx, day 43, mean, one female had significantly lower exposure, read-out: AUC(0-t)",94.5 ng·h/mL
same,Cmax,"[1]; female, cynomolgus monkey, plasma, im, 2 mg/dose, female, 2 mg/dose IM as PD1-Vaxx, day 43, plasma, mean (generally n = 3)",13.8 ng/mL
same,Tmax,"[1]; female, cynomolgus monkey, plasma, im, 2 mg/dose, read-out: Tmax",4 h
same,Cmax,"[1]; female, cynomolgus monkey, plasma, im, 5 mg/dose, female, 5 mg/dose IM as PD1-Vaxx, day 1, plasma, mean as printed",4.77 ng/mL
same,AUC(0-t),"[1]; female, cynomolgus monkey, plasma, im, 5 mg/dose, female, 5 mg/dose IM as PD1-Vaxx, day 43, mean, read-out: AUC(0-t)",1330 ng·h/mL
same,Cmax,"[1]; female, cynomolgus monkey, plasma, im, 5 mg/dose, female, 5 mg/dose IM as PD1-Vaxx, day 43, plasma, mean (generally n = 3)",160 ng/mL
same,Tmax,"[1]; female, cynomolgus monkey, plasma, im, 5 mg/dose, read-out: Tmax",1 h
same,AUC(0-t)/D,[1]; [5],125 (ngh/ml)/(mg/dose)
same,Tlast,[1]; [5],8 h
same,AUC(0-t)/D,[1]; [6],247 (ngh/ml)/(mg/dose)
same,Tlast,[1]; [6],24 h
same,AUC(0-t)/D,[1]; [7],30.1 (ngh/ml)/(mg/dose)
same,Cmax/D,[1]; [7],2.01 (ng/ml)/(mg/dose)
same,Tlast,[1]; [7],24 h
same,AUC(0-t)/D,[1]; [8],693 (ngh/ml)/(mg/dose)
same,Cmax/D,[1]; [8],40.5 (ng/ml)/(mg/dose)
same,Tlast,[1]; [8],48 h
same,Tmax,[1]; [8],1 h
same,AUC(0-t),"[1]; male, cynomolgus monkey, plasma, im, 0.5 mg/dose, male, 0.5 mg/dose IM as PD1-Vaxx, day 43, mean, read-out: AUC(0-t)",62.3 ng·h/mL
same,Tmax,"[1]; male, cynomolgus monkey, plasma, im, 0.5 mg/dose, read-out: Tmax",1 h
same,half-life,"[1]; male, cynomolgus monkey, plasma, im, 2 mg/dose",13.1 h
same,AUC(0-t),"[1]; male, cynomolgus monkey, plasma, im, 2 mg/dose, male, 2 mg/dose IM as PD1-Vaxx, day 43, mean, read-out: AUC(0-t)",494 ng·h/mL
same,Tmax,"[1]; male, cynomolgus monkey, plasma, im, 2 mg/dose, read-out: Tmax",1 h
same,half-life,"[1]; male, cynomolgus monkey, plasma, im, 5 mg/dose",12.7 h
same,AUC(0-t),"[1]; male, cynomolgus monkey, plasma, im, 5 mg/dose, male, 5 mg/dose IM as PD1-Vaxx, day 1, AUC calculable in 1 monkey/sex, read-out: AUC(0-t)",151 ng·h/mL
same,Cmax,"[1]; male, cynomolgus monkey, plasma, im, 5 mg/dose, male, 5 mg/dose IM as PD1-Vaxx, day 1, plasma, mean as printed",10.1 ng/mL
same,AUC(0-t),"[1]; male, cynomolgus monkey, plasma, im, 5 mg/dose, male, 5 mg/dose IM as PD1-Vaxx, day 43, mean, read-out: AUC(0-t)",3460 ng·h/mL
same,Cmax,"[1]; male, cynomolgus monkey, plasma, im, 5 mg/dose, male, 5 mg/dose IM as PD1-Vaxx, day 43, plasma, mean (generally n = 3)",202 ng/mL
same,Tmax,"[1]; male, cynomolgus monkey, plasma, im, 5 mg/dose, read-out: Tmax",2 h
same,accumulation ratio (RA),"[1]; single female monkey, 5 mg/dose",121
same,accumulation ratio (RA),"[1]; single male monkey, 5 mg/dose",16.3
same,induction of autoimmune responses,BALB/c mice,has not been observed
